Results reported in patent publication US20250353841A1 (BIOGEN MA INC., priority 2022, published 2025).

System: mutant Huntington (HTT) protein
Test: HTT Mutant HTRF iPSC assay (mHTT protein lowering)
Format: cell-based
Conditions: human iPSC derived from a HTT patient with a poly-Q49 mutation

| Compound | IC50 [nM] |
| --- | --- |
| Cc1cn2cc(-c3cc(F)c4nc(C5CCNCC5)cn4c3)ccc2n1 [Compound 96, 8-fluoro-2′-methyl-2-(piperidin-4-yl)-6,6′-biimidazo[1,2-a]pyridine] | 1000 to 9000 |
| Cc1cn2cc(-c3cc(F)c4nc(C5CCNCC5)cn4c3)cc(F)c2n1 [Compound 97, 8,8′-difluoro-2-methyl-2′-(piperidin-4-yl)-6,6′-biimidazo[1,2-a]pyridine] | 100 to 1000 |
| Fc1cc(-c2ccc3sncc3c2)cn2cc(C3CCNCC3)nc12 [Compound 98, 5-(8-fluoro-2-(piperidin-4-yl)imidazo[1,2-a]pyridin-6-yl)benzo[d]isothiazole] | 1000 to 9000 |
| Cc1cn2nc(-c3cc(F)c4nc(C5CCN(C6COC6)CC5)cn4c3)cc(C)c2n1 [Compound 99, 6-(8-fluoro-2-(1-(oxetan-3-yl)piperidin-4-yl)imidazo[1,2-a]pyridin-6-yl)-2,8-dimethylimidazo[1,2-b]pyridazine] | < 100 |
| CNC12CC(c3cn4cc(-c5cc(C)c6nc(C)cn6n5)cc(F)c4n3)(C1)C2 [Compound 100, 3-(6-(2,8-dimethylimidazo[1,2-b]pyridazin-6-yl)-8-fluoroimidazo[1,2-a]pyridin-2-yl)-N-methylbicyclo[1.1.1] pentan-1-amine] | < 100 |
| Cc1cn2nc(-c3cc(F)c4nc(C5CCNCC5)cn4c3)c(C)cc2n1 [Compound 101, 6-(8-fluoro-2-(piperidin-4-yl)imidazo[1,2-a]pyridin-6-yl)-2,7-dimethylimidazo[1,2-b]pyridazine] | 1000 to 9000 |
| Cc1cc(-c2cc(F)c3nc(C4CCNCC4)cn3c2)nn2ccnc12 [Compound 102, 6-(8-fluoro-2-(piperidin-4-yl)imidazo[1,2-a]pyridin-6-yl)-8-methylimidazo[1,2-b]pyridazine] | 100 to 1000 |
| CCc1cc(-c2cc(F)c3nc(C4CCNCC4)cn3c2)cn2cc(C)nc12 [Compound 103, 8-ethyl-8′-fluoro-2-methyl-2′-(piperidin-4-yl)-6,6′-biimidazo[1,2-a]pyridine] | 100 to 1000 |
| Cn1ncc2cc(-c3cc(F)c4nc(C5CCNCC5)cn4c3)cc(F)c21 [Compound 104, 7-fluoro-5-(8-fluoro-2-(piperidin-4-yl)imidazo[1,2-a]pyridin-6-yl)-1-methyl-1H-indazole] | 1000 to 9000 |
| Cc1cc(-c2cc(F)c3nc(C4CCNCC4)cn3c2)nn2cnnc12 [Compound 105, 6-(8-fluoro-2-(piperidin-4-yl)imidazo[1,2-a]pyridin-6-yl)-8-methyl-[1,2,4]triazolo[4,3-b]pyridazine] | 1000 to 9000 |
| Cc1cn2nc(-c3cc(F)c4nc(C5CCN(C6CC6)CC5)cn4c3)ccc2n1 [Compound 106, 6-(2-(1-cyclopropylpiperidin-4-yl)-8-fluoroimidazo[1,2-a]pyridin-6-yl)-2-methylimidazo[1,2-b]pyridazine] | < 100 |
| Cc1cn2nc(-c3cc(F)c4nc(C5CC6(CNC6)C5)cn4c3)cc(C)c2n1 [Compound 107] | 100 to 1000 |
| Cc1cn2nc(-c3cc(F)c4nc(C56CCC(N)(CC5)CC6)cn4c3)cc(C)c2n1 [Compound 108, 4-(6-(2,8-dimethylimidazo[1,2-b]pyridazin-6-yl)-8-fluoroimidazo[1,2-a]pyridin-2-yl)bicyclo[2.2.2]octan-1-amine] | < 100 |
| Cc1cn2nc(-c3cc(F)c4nc(C56CC(N(C)C)(C5)C6)cn4c3)cc(C)c2n1 [Compound 109, 3-(6-(2,8-dimethylimidazo[1,2-b]pyridazin-6-yl)-8-fluoroimidazo[1,2-a]pyridin-2-yl)-N,N-dimethylbicyclo[1.1.1] pentan-1-amine] | < 100 |
| Cc1cn2nc(-c3cc(F)c4nc(C5CCNC6(CC6)C5)cn4c3)cc(C)c2n1 (stereo not shown) [Compound 110, 6-(8-fluoro-2-(4-azaspiro[2.5]octan-7-yl)imidazo[1,2-a]pyridin-6-yl)-2,8-dimethylimidazo[1,2-b]pyridazine] | < 100 |
| Cc1cn2nc(-c3cc(F)c4nc(C5CCN(C)CC5)cn4c3)cc(C)c2n1 [Compound 111, 6-(8-fluoro-2-(1-methylpiperidin-4-yl)imidazo[1,2-a]pyridin-6-yl)-2,8-dimethylimidazo[1,2-b]pyridazine] | < 100 |
| CCN1CCC(c2cn3cc(-c4cc(C)c5nc(C)cn5n4)cc(F)c3n2)CC1 [Compound 112, 6-(2-(1-ethylpiperidin-4-yl)-8-fluoroimidazo[1,2-a]pyridin-6-yl)-2,8-dimethylimidazo[1,2-b]pyridazine] | < 100 |
| Cc1cn2nc(-c3cc(F)c4nc(C5CCN(C6CC6)CC5)cn4c3)cc(C)c2n1 [Compound 113, 6-[2-(1-cyclopropyl-4-piperidyl)-8-fluoro-imidazo[1,2-a]pyridin-6-yl]-2,8-dimethyl-imidazo[1,2-b]pyridazine] | < 100 |
| CCC(=O)N1CCC(c2cn3cc(-c4cc(C)c5nc(C)cn5n4)cc(F)c3n2)CC1 [Compound 120, 1-[4-[6-(2,8-dimethylimidazo[1,2-b]pyridazin-6-yl)-8-fluoro-imidazo[1,2-a]pyridin-2-yl]-1-piperidyl]propan-1-one] | 100 to 1000 |
| Cc1cn2nc(-c3cc(F)c4nc(C5CCN(C(=O)C6CC6)CC5)cn4c3)cc(C)c2n1 [Compound 121, cyclopropyl(4-(6-(2,8-dimethylimidazo[1,2-b]pyridazin-6-yl)-8-fluoroimidazo[1,2-a]pyridin-2-yl)piperidin-1-yl)methanone] | 100 to 1000 |
| Fc1ccc2nc(-c3cc(F)c4nc(C5CCNCC5)cn4c3)cn2c1 [Compound 122, 6,8′-difluoro-2′-(piperidin-4-yl)-2,6′-biimidazo[1,2-a]pyridine] | 1000 to 9000 |
| Cc1nc2c(C)cc(-c3cc(F)c4nc(C5CCNCC5)cn4c3)cn2n1 [Compound 123, 6-(8-fluoro-2-(piperidin-4-yl)imidazo[1,2-a]pyridin-6-yl)-2,8-dimethyl-[1,2,4]triazolo[1,5-a]pyridine] | 100 to 1000 |
| Fc1cc(F)c2nc(-c3cc(F)c4nc(C5CCNCC5)cn4c3)oc2c1 [Compound 124, 4,6-difluoro-2-(8-fluoro-2-(piperidin-4-yl)imidazo[1,2-a]pyridin-6-yl)benzo[d]oxazole] | 1000 to 9000 |
| Cc1cn2cc(-c3cc(F)c4nc(C5CCNCC5)cn4c3)nc(C)c2n1 [Compound 125, 6-(8-fluoro-2-(piperidin-4-yl)imidazo[1,2-a]pyridin-6-yl)-2,8-dimethylimidazo[1,2-a]pyrazine] | 100 to 1000 |
| Cc1cn2nc(-c3cc(F)c4nc(C5CCNCC5)c(Cl)n4c3)ccc2n1 [Compound 126, 6-[3-chloro-8-fluoro-2-(4-piperidyl)imidazo[1,2-a]pyridin-6-yl]-2-methyl-imidazo[1,2-b]pyridazine] | < 100 |
| Cc1cn2nc(-c3cc(F)c4nc(N5CCNCC5)cn4c3)cc(C)c2n1 [Compound 127, 6-(8-fluoro-2-piperazin-1-yl-imidazo[1,2-a]pyridin-6-yl)-2,8-dimethyl-imidazo[1,2-b]pyridazine] | 1000 to 9000 |
| CN1CCC(N(C)C(=O)c2cn3cc(-c4cc(F)c5nn(C)cc5c4)cc(F)c3n2)CC1 [Compound 129, 8-fluoro-6-(7-fluoro-2-methyl-indazol-5-yl)-N-methyl-N-(1-methyl-4-piperidyl)imidazo[1,2-a]pyridine-2-carboxamide] | 1000 to 9000 |
| Cc1cn2nc(-c3cn4cc(C5CC6CCC(C5)N6)cc(F)c4n3)cc(C)c2n1 (stereo not shown) [Compound 130] | 1000 to 9000 |
